Assay results reported in article PMC5288202, “Simultaneous inhibition of Vps34 kinase would enhance PI3Kδ inhibitor cytotoxicity in the B-cell malignancies” (Oncotarget, 2016).

Experiments:
OCI-AML-3 = experiment: Colony formation (colonogenic assay); assay type: cell-based; conditions: Homo sapiens
PI3Kγ = biological target: T1, PI3Kγ (Mus musculus, UniProt Q9JHG7); experiment: PI3K isoforms cellular selectivity assay (AKT phosphorylation, RAW264.7, C5a); assay type: cell-based; conditions: RAW264.7 cells, C5a stimulation
T1 construct: endogenous in cells; host or cells: RAW264.7 (ATCC)
Method: Cells were lysed and AKT phosphorylation was determined by Western Blotting. Intensity of the bands was determined using ImageJ 1.42q (NIH, USA) and normalized to total AKT (loading control).

MV4-11 [1] = experiment: Cell cycle analysis; assay type: cell-based; conditions: MV4-11, 48 h treatment
[2] = system: LAMP1 localization in HeLa cells; experiment: Immunofluorescence of LAMP1 localization; assay type: cell-based
Method: HeLa cells were treated with different concentrations of inhibitors for 16 hours. For all immunofluorescence experiments, cells were fixed in -20 °C methanol for 5 minutes or 3.7% (v/v) formaldehyde in phosphate-buffered saline (PBS) for 20 minutes. For LC3B staining, cells were fixed in -20 °C methanol. For EEA1 and LAMP1 staining, cells were fixed in PBS+ formaldehyde. Cells were then permeabilized with TBSTx (0.1% Triton X-100), blocked in AbDil (TBSTx + 2% BSA + 0.1% NaN3), and probed with primary and secondary antibodies diluted in AbDil. Cells were rinsed thoroughly with TBSTx and mounted by anti-fade prolong Gold with DAPI. Images were taken using a Leica DMI4000B fluorescent microscope. All experiments were repeated at least three times). […] Cells were lysed in lysis buffer. P62, LC3B, and GAPDH antibodies were used for immunoblotting.

PI3Kδ = PI3Kδ (Homo sapiens, UniProt O00329); experiment: Kinase kinetic assay with varied ATP; assay type: biochemical; design: purchased Invitrogen; conditions: varied ATP concentrations
Method: (§1) Kinetic analyses of PI3Kδ and Vps34 were performed using a luminometric kinase assay varying the concentration of ATP using the ADP-Glo reagents (Promega). […] After 60 min incubation at RT, varied concentrations of ATP and 0.1 mM substrate (PIP2:PS for PI3Kδ, PI:PS for Vps34) were added and incubated for 60 min at 37° C. The overall rate of reaction was determined as the slope of the decreasing phase of the reaction. Each data point was collected in duplicate and kinetic parameters were obtained using Prism 5.0 (GraphPad Software, San Diego, CA).

primary CLL cells = experiment: Growth of patient primary cells; assay type: cell-based; conditions: CLL cell, 72 hours, read-out: cell proliferation inhibited
Text: Peripheral blood mononuclear cells (PBMCs) from individuals with CLL were isolated by density centrifugation through Ficoll and frozen for each subject. Those subjects with low white counts whose CLL cell purity was expected to be < 85% underwent B cell isolation using RosetteSep. The protocol was approved by the Dana-Farber Harvard Cancer Center Institutional Review Board and all subjects signed written informed consent prior to participation.

HL-60 = experiment: Anti-proliferative effect; assay type: cell-based; conditions: Homo sapiens, HL-60, read-out: GI50 HL-60
MEC-2 = experiment: Cell cycle analysis; assay type: cell-based; conditions: MEC-2, 48 h treatment
MV4-11 [3] = experiment: Induction of apoptosis (PARP cleavage); assay type: cell-based
MV4-11 [4] = experiment: Autophagy markers LC3BII and p62 (immunoblotting); assay type: cell-based
[5] = system: PI3Kδ-mediated signaling in OCI-AML-2, OCI-AML-3, MV4-11 and MEC-2 cell lines; experiment: PI3Kδ-mediated signaling pathway (immunoblotting); assay type: cell-based; conditions: all four cell lines
Text: The following antibodies were purchased from Cell Signaling Technology: Akt(#4691), Phospho-Akt(Thr308)(#4056), Phospho-Akt(Ser473)(#4060), GAPDH, GSK-3β(#9315), Phospho-GSK-3β(#9323), FoxO1(#2880), Phospho-FoxO1 (Thr24)/FoxO3a(Thr32)/FoxO4(Thr28)(#2599), PRAS40(#2691), Phospho-PRAS40 (Thr246)(#2997), 4E-BP1(#9644), p70 S6K(#2708), Phospho-p70 S6K (Thr389)(#9234). SQSTM1/p62 (D5E2)(#8025), LC3B(#12513). PARP(#9532), Caspase-3(#9665), Phospho-p44/42 MAPK (Erk1/2) (Thr202/Tyr204)(#4377), p44/42 MAPK (Erk1/2) (#4695), Phospho-NF-ΚB P65 (Ser 536)(#3033), NF-ΚB P65(#4764). Lysophosphatidic Acid (#sc-201053, Santa Cruz), Recombinant Human PDGF-BB (#220-BB, R&D), Recombinant Human C5a (Peprotech, #300-70), goat anti-IgM (#5C07615, Meridian). LC3B antibody (#3868, CST). Tubulin antibody (#8035, Santa Cruz). EEA1 antibody (#610456, BD Bioscience) and LAMP1 antibody (#24170, Abcam). Secondary antibodies, Alexa488-anti-mouse, Alexa594-anti-rabbit and Prolong gold mounting medium with DAPI were purchased from Invitrogen.

VPS34 = biological target: T2, VPS34 (Homo sapiens, UniProt Q8NEB9); experiment: Kinase kinetic assay with varied ATP; assay type: biochemical; conditions: varied ATP concentrations
T2 construct: purchased Invitrogen
Method: as §1

Ramos = experiment: Anti-proliferative effect; assay type: cell-based; conditions: Homo sapiens, read-out: GI50 Ramos
U937 = experiment: Anti-proliferative effect; assay type: cell-based; conditions: Homo sapiens, U-937, read-out: GI50 U937
OCI-AML-2 [6] = experiment: Autophagy markers LC3BII and p62 (immunoblotting); assay type: cell-based
NOMO-1 = experiment: Anti-proliferative effect; assay type: cell-based; conditions: Homo sapiens, NOMO-1, read-out: GI50 NOMO-1
OCI-AML-2 [7] = experiment: Anti-proliferative effect; assay type: cell-based; conditions: Homo sapiens, OCI-AML2, read-out: GI50 OCI-AML-2
Namalwa = experiment: Anti-proliferative effect; assay type: cell-based; conditions: read-out: GI50 Namalwa
[8] = system: FLT3-ITD positive primary AML cells; experiment: Growth of AML primagraft cells ex vivo; assay type: cell-based; conditions: 72 hours
Method: Mononuclear cells were isolated from AML patients. Mononuclear cells were isolated by density gradient centrifugation through Ficoll-Plaque Plus (Amersham Pharmacia Biotech AB, Uppsala, Sweden) at 2000 rpm for 30 minutes, followed by two washes in 1X PBS. Freeze-thawed cells were then cultured in liquid culture (DMEM, supplemented with 20% FBS). All blood and bone marrow samples from AML patients were obtained through written consent under approval of the Dana Farber Cancer Institute Institutional Review Board. The ethics committees approved the consent procedure.

T1 sequence (Q9JHG7 whole entry, canonical isoform): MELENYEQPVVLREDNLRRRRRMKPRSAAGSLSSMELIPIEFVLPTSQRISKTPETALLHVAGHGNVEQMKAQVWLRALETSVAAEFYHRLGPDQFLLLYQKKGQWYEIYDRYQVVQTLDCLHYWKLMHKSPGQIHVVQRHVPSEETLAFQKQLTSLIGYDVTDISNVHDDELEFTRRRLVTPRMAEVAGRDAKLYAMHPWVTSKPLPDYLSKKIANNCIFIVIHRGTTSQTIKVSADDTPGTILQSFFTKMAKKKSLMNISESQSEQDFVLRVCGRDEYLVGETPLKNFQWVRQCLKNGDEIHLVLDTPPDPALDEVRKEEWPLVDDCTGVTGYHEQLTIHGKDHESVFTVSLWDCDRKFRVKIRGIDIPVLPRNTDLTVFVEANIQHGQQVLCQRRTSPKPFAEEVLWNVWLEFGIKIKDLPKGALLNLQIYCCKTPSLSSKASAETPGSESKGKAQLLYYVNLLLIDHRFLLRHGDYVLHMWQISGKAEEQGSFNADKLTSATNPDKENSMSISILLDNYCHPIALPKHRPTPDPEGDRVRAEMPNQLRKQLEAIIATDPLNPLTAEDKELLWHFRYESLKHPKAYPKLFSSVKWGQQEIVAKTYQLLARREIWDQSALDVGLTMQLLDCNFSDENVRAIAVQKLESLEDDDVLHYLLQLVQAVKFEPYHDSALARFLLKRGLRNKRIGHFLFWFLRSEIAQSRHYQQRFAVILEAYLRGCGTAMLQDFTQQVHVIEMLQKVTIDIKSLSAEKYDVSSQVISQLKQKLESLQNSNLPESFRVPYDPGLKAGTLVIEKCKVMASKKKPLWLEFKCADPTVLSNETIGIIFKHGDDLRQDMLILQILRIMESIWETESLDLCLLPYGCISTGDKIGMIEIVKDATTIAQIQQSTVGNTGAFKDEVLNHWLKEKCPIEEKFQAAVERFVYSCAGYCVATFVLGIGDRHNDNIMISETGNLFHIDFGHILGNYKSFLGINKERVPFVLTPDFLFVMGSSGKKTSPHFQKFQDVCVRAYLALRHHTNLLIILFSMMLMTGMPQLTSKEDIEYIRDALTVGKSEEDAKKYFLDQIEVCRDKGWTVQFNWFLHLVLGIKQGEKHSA
PI3Kδ, sequence (O00329 whole entry): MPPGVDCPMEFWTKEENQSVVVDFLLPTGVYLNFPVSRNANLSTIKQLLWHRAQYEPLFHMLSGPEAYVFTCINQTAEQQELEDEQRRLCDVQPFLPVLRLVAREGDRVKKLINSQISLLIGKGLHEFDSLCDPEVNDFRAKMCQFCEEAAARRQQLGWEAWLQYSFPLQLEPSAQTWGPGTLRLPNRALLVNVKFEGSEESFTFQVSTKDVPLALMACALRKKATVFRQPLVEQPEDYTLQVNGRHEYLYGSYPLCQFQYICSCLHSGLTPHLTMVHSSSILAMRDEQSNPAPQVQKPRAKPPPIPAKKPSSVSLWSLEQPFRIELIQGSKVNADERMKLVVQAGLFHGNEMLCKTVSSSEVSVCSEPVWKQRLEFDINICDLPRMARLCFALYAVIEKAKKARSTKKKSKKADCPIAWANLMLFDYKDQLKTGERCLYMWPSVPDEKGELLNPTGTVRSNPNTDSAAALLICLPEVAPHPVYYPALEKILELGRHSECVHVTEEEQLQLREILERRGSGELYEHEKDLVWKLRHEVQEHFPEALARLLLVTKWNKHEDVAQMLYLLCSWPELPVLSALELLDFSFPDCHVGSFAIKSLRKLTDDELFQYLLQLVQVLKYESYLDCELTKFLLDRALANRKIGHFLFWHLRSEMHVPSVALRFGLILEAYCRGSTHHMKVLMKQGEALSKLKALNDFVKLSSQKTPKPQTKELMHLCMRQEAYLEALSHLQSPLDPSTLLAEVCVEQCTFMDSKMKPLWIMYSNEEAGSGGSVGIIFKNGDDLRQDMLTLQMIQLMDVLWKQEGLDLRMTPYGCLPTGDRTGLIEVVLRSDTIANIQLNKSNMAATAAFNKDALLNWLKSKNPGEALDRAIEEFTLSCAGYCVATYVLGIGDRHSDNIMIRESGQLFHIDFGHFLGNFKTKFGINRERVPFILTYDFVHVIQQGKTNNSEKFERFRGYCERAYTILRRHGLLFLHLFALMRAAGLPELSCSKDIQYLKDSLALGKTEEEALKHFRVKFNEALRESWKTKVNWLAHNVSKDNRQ
PI3Kδ, sequence (P27986 whole entry partner): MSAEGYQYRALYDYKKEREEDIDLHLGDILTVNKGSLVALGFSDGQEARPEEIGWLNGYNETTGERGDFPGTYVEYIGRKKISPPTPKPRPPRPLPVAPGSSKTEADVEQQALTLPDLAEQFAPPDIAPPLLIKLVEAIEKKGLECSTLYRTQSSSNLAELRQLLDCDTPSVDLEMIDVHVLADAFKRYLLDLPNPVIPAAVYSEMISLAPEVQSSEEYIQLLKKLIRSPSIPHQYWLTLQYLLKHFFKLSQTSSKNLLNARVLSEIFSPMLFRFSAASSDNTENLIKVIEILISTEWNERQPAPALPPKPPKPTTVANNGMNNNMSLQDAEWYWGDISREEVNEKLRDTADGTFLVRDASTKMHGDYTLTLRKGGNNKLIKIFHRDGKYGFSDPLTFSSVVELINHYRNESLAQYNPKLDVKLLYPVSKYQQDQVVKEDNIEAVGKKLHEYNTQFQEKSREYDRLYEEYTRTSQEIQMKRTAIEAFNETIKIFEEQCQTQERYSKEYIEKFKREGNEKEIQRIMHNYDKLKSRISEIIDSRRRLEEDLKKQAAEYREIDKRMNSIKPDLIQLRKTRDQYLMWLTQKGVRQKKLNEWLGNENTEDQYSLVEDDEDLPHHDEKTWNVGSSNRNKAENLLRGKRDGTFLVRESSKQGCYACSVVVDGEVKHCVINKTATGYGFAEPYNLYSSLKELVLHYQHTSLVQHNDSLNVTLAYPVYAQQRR
T2 sequence (Q8NEB9 whole entry): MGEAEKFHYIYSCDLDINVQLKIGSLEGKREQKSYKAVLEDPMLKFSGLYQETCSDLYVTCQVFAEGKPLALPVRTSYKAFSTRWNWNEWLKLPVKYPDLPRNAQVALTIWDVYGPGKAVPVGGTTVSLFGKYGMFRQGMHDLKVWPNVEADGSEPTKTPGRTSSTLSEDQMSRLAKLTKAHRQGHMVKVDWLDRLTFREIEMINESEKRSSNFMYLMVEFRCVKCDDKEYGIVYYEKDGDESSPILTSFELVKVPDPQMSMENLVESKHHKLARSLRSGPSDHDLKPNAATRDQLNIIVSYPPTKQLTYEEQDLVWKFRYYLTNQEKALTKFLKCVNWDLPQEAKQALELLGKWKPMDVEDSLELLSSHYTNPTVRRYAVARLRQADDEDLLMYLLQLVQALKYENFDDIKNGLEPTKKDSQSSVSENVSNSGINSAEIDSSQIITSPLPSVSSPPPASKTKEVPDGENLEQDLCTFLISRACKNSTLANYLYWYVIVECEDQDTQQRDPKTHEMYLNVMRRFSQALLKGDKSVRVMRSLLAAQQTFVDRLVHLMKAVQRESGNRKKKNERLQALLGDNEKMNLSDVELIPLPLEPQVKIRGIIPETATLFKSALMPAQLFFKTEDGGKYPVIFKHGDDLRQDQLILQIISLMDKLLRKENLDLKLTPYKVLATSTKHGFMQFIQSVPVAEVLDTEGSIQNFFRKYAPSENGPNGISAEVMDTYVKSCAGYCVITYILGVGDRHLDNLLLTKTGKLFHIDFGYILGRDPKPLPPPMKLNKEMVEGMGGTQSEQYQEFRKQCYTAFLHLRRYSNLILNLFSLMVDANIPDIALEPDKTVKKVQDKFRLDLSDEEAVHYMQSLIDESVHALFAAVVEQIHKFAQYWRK

Cc1nc(NC(=O)CN)sc1-c1cnc(Cl)c(NS(=O)(=O)c2ccc(C(C)(C)C)cc2)c1 [PI3KD/V-IN-01, 2-amino-N-(5-(5-(4-tert-butylphenylsulfonamido)-6-chloropyridin-3-yl)-4-methylthiazol-2-yl)acetamide]
EC50 (OCI-AML-3): 1000 nM
EC50 (PI3Kγ): 186 nM
cell cycle progression (MV4-11 [1]): arrested in the G0/G1 phase
Effect on lysosome marker LAMP1 localization [2]: affected
Mode of inhibition against PI3Kδ (PI3Kδ): ATP competitive inhibitor
inhibition at 1 µM (primary CLL cells): ~50%
GI50 (HL-60): 2700 nM
cell cycle progression (MEC-2): arrested in the G0/G1 phase
induction of apoptosis (MV4-11 [3]): apparent PARP cleavage observed
levels of the autophagy markers, LC3BII and p62 (MV4-11 [4]): not observed
Activity of GSK3β and NFκB [5]: not affected
Phosphorylation of 4EBP1 [5]: not inhibited
effect on pAKT(T308, S473), pFOXO1, pPRAS40 and pS6K [5]: inhibition of pAKT(T308, S473) and downstream pFOXO1, pPRAS40 and pS6K
Mode of inhibition against Vps34 (VPS34): ATP competitive inhibitor
GI50 (Ramos): 5400 nM
GI50 (U937): 2200 nM
levels of the autophagy markers, LC3BII and p62 (OCI-AML-2 [6]): concentration-dependent increase
GI50 (NOMO-1): 2300 nM
GI50 (OCI-AML-2 [7]): 1000 nM
GI50 (Namalwa): 1300 nM
inhibition at 1 µM [8]: > 85%
